Laboratory results from PMC8310277 (Viruses, 2021).
Where a SMILES comes first, the peptide text is derived from it. Bridges are numbered along the chain shown (N, C = ends). Where no end group is shown, it is not given here.

Experiments:
[1] = system: pseudotyped SARS-CoV-2 viruses in lung epithelial A549 cells; assay type: cell-based; conditions: 25 μg/mL
[2] = system: pseudotyped viruses expressing SARS-CoV-2 spike proteins (Wuhan-Hu-1)
[3] = system: pseudotyped SARS-CoV-2 viruses in intestinal epithelial Caco-2 cells; conditions: 25 μg/mL
[4] = system: HEK 293T-hACE2 cells; assay: Cytotoxicity assay (MTS); conditions: 1-50 μg/mL, 24 h; hACE2-expressing HEK293T cells; O.D. 490 nm; 4-6 samples

With `CC[C@H](C)[C@@H]1NC(=O)[C@H](CCC(=O)O)NC(=O)[C@@H]2CSSC[C@@H]3NC(=O)[C@H](Cc4ccc(O)cc4)NC(=O)[C@@H](NC(=O)[C@@H](NC(=O)[C@H](C)N)[C@@H](C)O)CSSC[C@@H](C(=O)N[C@@H](CCCNC(=N)N)C(=O)O)NC(=O)[C@H](CSSC[C@H](NC(=O)[C@H](CCCNC(=N)N)NC(=O)CNC(=O)[C@H]([C@@H](C)O)NC(=O)[C@H](CCCNC(=N)N)NC3=O)C(=O)N[C@@H](C)C(=O)N[C@@H]([C@@H](C)O)C(=O)N[C@@H](CCCNC(=N)N)C(=O)N[C@@H](CCC(=O)O)C(=O)N[C@@H](CO)C(=O)N[C@@H](CC(C)C)C(=O)N[C@@H](CO)C(=O)NCC(=O)N[C@@H](C(C)C)C(=O)N2)NC(=O)[C@H](CC(C)C)NC(=O)[C@H](CCCNC(=N)N)NC(=O)[C@H](Cc2ccc(O)cc2)NC(=O)[C@H](CC(C)C)NC(=O)[C@H](CCCNC(=N)N)NC(=O)CNC(=O)[C@H](CO)NC1=O` [HD5] (H-ATCYCRTGRCATRESLSGVCEISGRLYRLCCR-OH; disulfide 3-31, 5-20, 10-30 (inferred); N-terminus and C-terminus assumed) as the molecule, how does the “anti-SARS-CoV-2 activity in A549 cells (in words)” value [1] read?
The value was “exhibited anti-SARS-CoV-2 activity”.

And the “post-entry effect on infection (in words)” value [2]?
Its value is “None of the tested defensins affected infection after viral entry”.

And the “protection by pre-treatment of cells (in words)” value [2]?
The value was “partially blocked viral infection”.

What about the “suppression of SARS-CoV-2 infection” value [2] of the same molecule?
The value was 60%.

What about the “inhibition of the earlier Wuhan strain” value ([2]; pseudotyped viruses expressing spike proteins (Wuhan-Hu-1, 48 h, 50 μg/mL)) of the same molecule?
Its value is 96%.

And the “anti-SARS-CoV-2 activity in Caco-2 cells (in words)” value [3]?
Its value is “exhibited anti-SARS-CoV-2 activity”.

And the “cytotoxicity (cell viability, MTS, in words)” value [4]?
Its value is “not cytotoxic”.

Which “anti-SARS-CoV-2 activity (in words)” value [2] does the source give for “HBD5 (GLDFSQPFPSGEFAVCESCKLGRGKCRKECLENEKPDGNCRLNFLCCRQRI; ends and bridges not checked; cysteine pairing not given here; UniProt Q8NG35 28-78, looked up)” here?
Its value is “did not effectively inhibit viral infection”.

For “HBD6 (FFDEKCNKLKGTCKNNCGKNEELIALCQKSLKCCRTIQPCGSIID; ends and bridges not checked; cysteine pairing not given here; UniProt Q8N104 21-65, looked up)”, which “anti-SARS-CoV-2 activity (in words)” value [2] is on record?
Its value is “did not effectively inhibit viral infection”.

Which “anti-SARS-CoV-2 activity (in words)” value [2] does the source give for HD6 here?
The value was “only blocked SARS-CoV-2 infection at the highest concentration tested”.

And the “cytotoxicity (cell viability, MTS, in words)” value [4]?
The value was “not cytotoxic”.

With “HNP4 (VCSCRLVFCRRTELRVGNCLIGGVSFTYCCTRV; ends and bridges not checked; cysteine pairing not given here; UniProt P12838 64-96, looked up)” as the molecule, how does the “anti-SARS-CoV-2 activity (in words)” value [2] read?
Its value is “substantially less potent”.

B1: pro-HD5 (protein, UniProt Q01523 20-94, looked up)
pro-form: ESLQERADEATTQKQSGEDNQDLAISFAGNGLSALRTSGSQARATCYCRTGRCATRESLSGVCEISGRLYRLCCR
modifications: pro-form
For B1, which “anti-SARS-CoV-2 activity (in words)” value [2] is on record?
Its value is “no anti-SARS-CoV-2 activity”.
